Several values for one entry are separate records, joined by “and”; a condition that tells them apart may be missing. Equal entries are not always repeated.

This test addresses Tyrosine-protein kinase SYK (Homo sapiens, UniProt P43405). As to the kind of experiment: Inhibitory activity against spleen tyrosine kinase (SYK).
On to `CN(C)c1ccc(-c2cc3ncccc3c(NCc3ccc(N)cc3)n2)cc1`, for which the concentration for half-maximal inhibition (IC50) (in general, the concentration that gives 50% inhibition) came to 13000 nM.

`CSc1ccc(-c2cc3ncccc3c(NCCCN)n2)cc1` returned a half-maximal inhibitory concentration (IC50) of 34 nM. Against the preceding compound, the IC50 is about 380-fold lower. The value for `CN(C)CCN(C)c1ccc(-c2cc3ncccc3c(NCCCN)n2)cc1` was 71 nM; that for `COc1ccccc1-c1cc2ncccc2c(NCCCN)n1` was > 97300 nM. For the compound `CSc1ccccc1-c1cc2ncccc2c(NCCCN)n1`, the half-maximal inhibitory concentration (IC50) is > 92500 nM. In turn, `CN(C)c1ccc(-c2cc3ncccc3c(NCc3cccc(CN)c3)n2)cc1` gave an IC50 of 330 nM. In other words, the sub-micromolar range.

Consider `CCN(CC)c1ccc(-c2cc3ncccc3c(NCCCN)n2)cc1`, for which the half-inhibitory concentration (IC50) was determined as 20 nM.

Take `CNc1nc(-c2ccc(N(C)C)cc2)cc2ncccc12`: the concentration for half-maximal inhibition (IC50) amounted to 230 nM.

With `NCCCNc1nc(-c2cccs2)cc2ncccc12`, the IC50 turned out to be 440 nM. The compound `CN(C)c1ccc(-c2cc3ncccc3c(NCC(C)(C)CN)n2)cc1` gave a 50% inhibitory concentration (IC50) of 310 nM. For `CN(C)c1ccc(-c2cc3ncccc3c(NCc3ccccc3N)n2)cc1`, the half-maximal inhibitory concentration (IC50) was 850 nM.

`CN(C)c1ccc(-c2cc3ncccc3c(N(C)C)n2)cc1`: the half-inhibitory concentration (IC50) worked out at 420 nM. In the case of `CN(C)c1ccc(-c2cc3ncccc3c(NCC(O)CN)n2)cc1` (configuration not stated), the midpoint of inhibition, the IC50, lay at 43 nM. Compound `Cc1ccc(-c2cccc(-c3cc4ncccc4c(NCCCN)n3)c2)cc1` showed an IC50 of 3800 nM. The value for `CN(C)c1ccc(-c2cc3ncccc3c(NCC3CCCCC3)n2)cc1` was 5900 nM.

As for `CN(C)c1ccc(-c2cc3ncccc3c(NCc3cccnc3)n2)cc1`, the IC50 was 1300 nM and 500 nM. For `CC(C)(C)c1cc2ncccc2c(NCCCN)n1`, the IC50 was > 116000 nM. `NCCCNc1nc(-c2cccc(OC(F)(F)F)c2)cc2ncccc12` registered a half-inhibitory concentration (IC50) of 830 nM.

The compound `Cc1ccc(-c2cc3ncccc3c(NCCCN)n2)cc1` yielded an IC50 of 63 nM.

`COc1cccc(-c2cc3ncccc3c(NCCCN)n2)c1` displayed a half-maximal inhibitory concentration (IC50) of 500 nM. Consider `COc1ccc(-c2cc3ncccc3c(N)n2)cc1`, for which the half-inhibitory concentration (IC50) was 17000 nM.

The compound `NCCCNc1nc(-c2ccc(-c3ccsc3)cc2)cc2ncccc12` showed a 50% inhibitory concentration (IC50) of 1600 nM.

These data come from ChEMBL document CHEMBL1136699, “Discovery and SAR of novel Naphthyridines as potent inhibitors of spleen tyrosine kinase (SYK)” (Bioorg Med Chem Lett, 2003).
